Test results: ChEMBL document CHEMBL5727654 (2020)

Target: T1, Signal transducer and activator of transcription 1-alpha/beta (Homo sapiens, UniProt P42224)
T1 sequence (P42224 whole entry): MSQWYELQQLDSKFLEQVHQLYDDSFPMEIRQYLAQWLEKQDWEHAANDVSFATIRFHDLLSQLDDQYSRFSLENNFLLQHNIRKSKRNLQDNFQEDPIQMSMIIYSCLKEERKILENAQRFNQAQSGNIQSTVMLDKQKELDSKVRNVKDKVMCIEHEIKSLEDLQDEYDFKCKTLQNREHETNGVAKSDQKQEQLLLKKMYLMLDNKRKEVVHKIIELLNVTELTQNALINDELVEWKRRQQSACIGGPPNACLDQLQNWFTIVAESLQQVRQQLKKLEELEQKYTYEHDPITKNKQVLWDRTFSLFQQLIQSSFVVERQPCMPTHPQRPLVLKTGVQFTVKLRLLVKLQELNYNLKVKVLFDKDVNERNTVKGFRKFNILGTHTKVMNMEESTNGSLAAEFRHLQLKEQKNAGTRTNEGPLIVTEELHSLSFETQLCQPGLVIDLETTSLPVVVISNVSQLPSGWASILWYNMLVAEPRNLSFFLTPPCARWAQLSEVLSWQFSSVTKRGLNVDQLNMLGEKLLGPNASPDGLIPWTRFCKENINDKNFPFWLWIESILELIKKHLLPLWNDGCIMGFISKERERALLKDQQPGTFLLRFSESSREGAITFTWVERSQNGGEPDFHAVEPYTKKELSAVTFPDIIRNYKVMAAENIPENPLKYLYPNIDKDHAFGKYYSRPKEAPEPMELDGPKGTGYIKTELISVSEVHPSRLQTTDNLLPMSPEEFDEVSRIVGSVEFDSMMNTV
Assay: Bioassay Evaluation: Compound samples (in 3-5 mg quantities) were evaluated in a variety of assays. All compound submissions were fully characterized (1H, 13C, IR, HRMS), satisfied purity criteria (≥95% LC/MC, ELS).
Assay type: single protein

IC50: 40.6 µM
Structure (SMILES): COc1ccc(C2=Nn3c(nnc3-c3[nH]nc4c3CCC4)SC2)cc1
